Test [1] has as its target T1, hGCGR (Homo sapiens, UniProt P47871).
T1 construct: expressed in transfected cells
The test is described as follows: Functional cAMP formation (HTRF) in HEK-293 clonal cells expressing hGCGR, 0.1% bovine casein, without or with 1.0% human serum albumin. The settings on record: geometric mean, read-out: hGCGR EC50, nM (SEM, n). Type of test: cell-based. Summed up:
(§1)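 Cells were stimulated with peptide for 30 min at 37° C, then intracellular cAMP was measured by competitive HTRF (665/620 nm ratio) and converted to nM using a cAMP standard curve. Relative EC50 and Emax came from four-parameter logistic fits of percent maximal response against peptide concentration.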
(Changes in cAMP serve as a functional read-out for many G protein-coupled receptors.)

Test [2] addresses T2, hGIPR (Homo sapiens, UniProt P48546).
T2 construct: expressed in transfected cells
T2 sequence (P48546 22-466): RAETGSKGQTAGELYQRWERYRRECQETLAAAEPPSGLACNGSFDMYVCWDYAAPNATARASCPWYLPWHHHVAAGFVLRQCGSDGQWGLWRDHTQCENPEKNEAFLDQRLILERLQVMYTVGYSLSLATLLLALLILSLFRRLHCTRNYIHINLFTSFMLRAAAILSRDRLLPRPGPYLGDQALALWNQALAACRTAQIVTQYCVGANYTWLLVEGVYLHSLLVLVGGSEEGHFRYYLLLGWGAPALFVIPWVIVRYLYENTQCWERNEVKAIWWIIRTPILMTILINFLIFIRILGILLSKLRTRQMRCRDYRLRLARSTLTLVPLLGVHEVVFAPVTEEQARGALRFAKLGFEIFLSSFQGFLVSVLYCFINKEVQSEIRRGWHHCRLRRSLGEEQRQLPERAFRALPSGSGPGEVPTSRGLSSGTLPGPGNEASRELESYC
As to the kind of experiment: Functional cAMP formation (HTRF) in HEK-293 clonal cells expressing hGIPR, 0.1% bovine casein, without or with 1.0% human serum albumin. Type of test: cell-based. The settings on record: 37° C.; for EC50: 0.1% bovine casein and 1.0% human serum albumin, geometric mean, read-out: hGIPR EC50, nM (SEM, n); for Emax: read-out: hGIPR Emax, % ± SEM. Summed up: as §1

Test [3] addresses hGLP-1R (Homo sapiens, UniProt P43220). The test is described as follows: Functional cAMP formation (HTRF) in HEK-293 clonal cells expressing hGLP-1R, 0.1% bovine casein, without or with 1.0% human serum albumin. Type of test: cell-based. More on the design: expressed in transfected cells. The settings on record: for EC50: geometric mean, read-out: hGLP-1R EC50, nM (SEM, n); for Emax: read-out: hGLP-1R Emax, % ± SEM. Summed up:
as §1

The target of test [4] is T3, human Gcg receptor (hGcgR) (Homo sapiens, UniProt P47871).
T3 construct: expressed in transfected cells; crude membranes
T3 sequence (P47871 26-477): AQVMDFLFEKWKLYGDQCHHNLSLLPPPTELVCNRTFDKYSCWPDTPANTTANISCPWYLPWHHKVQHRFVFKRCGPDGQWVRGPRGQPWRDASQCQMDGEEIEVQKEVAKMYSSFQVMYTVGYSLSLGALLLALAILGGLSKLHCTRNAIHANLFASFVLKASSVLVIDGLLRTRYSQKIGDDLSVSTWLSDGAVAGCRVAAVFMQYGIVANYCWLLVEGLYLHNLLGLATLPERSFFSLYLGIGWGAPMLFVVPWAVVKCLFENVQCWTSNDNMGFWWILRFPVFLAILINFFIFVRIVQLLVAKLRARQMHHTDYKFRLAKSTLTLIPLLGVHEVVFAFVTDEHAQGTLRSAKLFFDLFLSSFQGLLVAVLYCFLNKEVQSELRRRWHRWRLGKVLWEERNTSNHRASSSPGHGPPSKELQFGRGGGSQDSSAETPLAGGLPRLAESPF
The test is described as follows: [125I]-Glucagon binding, SPA with membranes of HEK293 cells expressing hGcgR. The note with it: human GcgR; geometric mean (SEM, n); read-out: Binding Affinity Ki, nM (SEM, n) hGCGR. Here is the method: Two methods are used for the preparation of crude cell membranes.
Method 1: Frozen cell pellets are lysed on ice in hypotonic buffer containing 50 mM Tris HCl, pH 7.5, and Roche Complete™ Protease Inhibitors with EDTA. […] The homogenate is centrifuged at 4° C. at 1100 × g for 10 minutes. The supernatant is collected and stored on ice while the pellets are resuspended in homogenization buffer and rehomogenized as described above. The homogenate is centrifuged at 1100 × g for 10 minutes. The second supernatant is combined with the first supernatant and centrifuged at 35000 × g for 1 hour at 4° C. The resulting membrane pellet is resuspended in homogenization buffer containing protease inhibitors at approximately 1 to 3 mg/mL, quick frozen in liquid nitrogen and stored as aliquots in a -80° C. freezer until use.
The homogenate is centrifuged at 4° C. at 1800 × g for 15 minutes. The supernatant is collected and stored on ice while the pellets are resuspended in homogenization buffer (without DNAse I) and rehomogenized as described above. The homogenate is centrifuged at 1800 × g for 15 minutes. The second supernatant is combined with the first supernatant and centrifuged an additional time at 1800 × g for 15 minutes. The overall supernatant is then centrifuged at 25000 × g for 30 minutes at 4° C. The resulting membrane pellet is resuspended in homogenization buffer (without DNAse I) containing protease inhibitors at approximately 1 to 3 mg/mL and stored as aliquots in a -80° C. freezer until use.
The human Gcg receptor binding assays are performed using a Scintillation Proximity Assay (SPA) format with wheat germ agglutinin (WGA) beads (Perkin Elmer). The binding buffer contains 25 mM 4-(2-hydroxyethyl)-1-piperazineethanesulfonic acid (HEPES), pH 7.4, 2.5 mM CaCl2, 1 mM MgCh, 0.1% (w/v) bacitracin (Research Products), 0.003% (w/v) Polyoxyethylenesorbitan monolaurate (TWEEN®-20), and Roche Complete™ Protease Inhibitors without EDTA. […] Next, 5 µL serially diluted compound or DMSO is transferred into Corning® 3632 clear bottom assay plates containing 45 µL assay binding buffer or unlabeled Gcg control (non-specific binding or NSB, at 1 µM final). […] Plates are sealed and mixed on a plate shaker (setting 6) for 1 minute and read with a PerkinElmer Trilux MicroBeta® scintillation counter after 12 hours of incubation/settling time at room temperature.
Raw CPM data for concentration curves of peptides, Gcg, GLP-1, or GIP are converted to percent inhibition by subtracting nonspecific binding (binding in the presence of excess unlabeled Gcg, GLP-1, or GIP, respectively) from the individual CPM values and dividing by the total binding signal, also corrected by subtracting nonspecific binding. Data are analyzed using four-parameter (curve maximum, curve minimum, IC50, Hill slope) nonlinear regression routines (Genedata Screener, version 12.0.4, Genedata AG, Basal, Switzerland). […] Values for Ki are reported as the geometric mean, with error expressed as the standard error of the mean (SEM) and n is equal to the number of independent replicates (determined in assays performed on different days). Geometric Means are calculated as follows: […]
The Ki Ratio (Ki for native control peptide/Ki for test compound) at each receptor and each species is calculated. The Ki Ratio is a rapid indication of the apparent affinity of a peptide compared to the native control peptide.
n=⅟x means that only one value out of the total number of replicates (x) is used to express the mean. SEM is only calculated when n=2 or greater non-qualified results exist. Means are expressed as GeoMetric means with the standard error of the mean (SEM) and the number of replicates (n) indicated in parenthesis.

[5] abbreviates: 0.1% bovine casein and 1.0% human serum albumin, 37° C.
Where [6] appears, read: cAMP, incubated at 37° C., 0.1% bovine casein (no human serum albumin).
The mark [7] stands for this setting: HEK293, 0.1% bovine casein and 1.0% human serum albumin, percent of maximal response to GIP(1-42)NH2.
Setting [8] is: HEK293, percent of maximal response to GIP(1-42)NH2, 0.1% bovine casein, arithmetic mean.

From patent publication US20230265151A1, “GIP/GLP1 CO-AGONIST COMPOUNDS” (priority 2020, published 2023) come the findings set out here.

Like-named read-outs stand apart in the source and are kept apart here.

T1 sequence (P47871 26-477): as above
hGLP-1R, sequence (P43220 24-463): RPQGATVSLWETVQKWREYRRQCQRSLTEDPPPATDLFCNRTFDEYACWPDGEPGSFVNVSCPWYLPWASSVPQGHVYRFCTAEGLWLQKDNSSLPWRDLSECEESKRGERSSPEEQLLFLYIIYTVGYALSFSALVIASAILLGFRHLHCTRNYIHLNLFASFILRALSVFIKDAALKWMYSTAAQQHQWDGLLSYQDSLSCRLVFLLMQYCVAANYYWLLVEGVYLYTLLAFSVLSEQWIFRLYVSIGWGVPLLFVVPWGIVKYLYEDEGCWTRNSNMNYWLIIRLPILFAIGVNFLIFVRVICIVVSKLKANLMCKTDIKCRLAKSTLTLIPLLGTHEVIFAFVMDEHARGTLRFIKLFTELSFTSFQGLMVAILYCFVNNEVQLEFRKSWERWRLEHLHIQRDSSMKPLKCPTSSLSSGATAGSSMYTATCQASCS

For orientation: EC50 means the concentration giving half of the maximal effect. Usually Emax stands for the maximal effect, on the per cent scale that the assay sets. Broadly, the Ki is a dissociation constant, usually derived from enzyme kinetics or from competition with a known ligand. Consider `CC[C@H](C)[C@H](NC(=O)[C@H](CC(C)C)NC(=O)[C@](C)(Cc1ccc(O)cc1)NC(=O)[C@@H](CCC(=O)O)NC(=O)[C@@H](NC(=O)[C@H](Cc1ccccc1)NC(=O)[C@H](CCC(=O)O)NC(=O)C(C)(C)NC(=O)[C@H](CCC(N)=O)NC(=O)[C@H](C)NC(=O)[C@H](CCCCNC(=O)COCCOCCNC(=O)COCCOCCNC(=O)CC[C@H](NC(=O)CCCCCCCCCCCCC(=O)O)C(=O)O)NC(=O)[C@H](CCCN)NC(=O)[C@H](CC(=O)O)NC(=O)[C@H](CC(C)C)NC(=O)[C@](C)(CC(C)C)NC(=O)[C@H](CCCCNC(=O)COCCOCCNC(=O)COCCOCCNC(=O)CC[C@H](NC(=O)CCCCCCCCCCCCC(=O)O)C(=O)O)NC(=O)[C@H](CO)NC(=O)[C@H](Cc1ccncc1)NC(=O)[C@H](CC(=O)O)NC(=O)[C@H](CO)NC(=O)[C@@H](NC(=O)[C@](C)(Cc1ccccc1F)NC(=O)[C@@H](NC(=O)CNC(=O)[C@H](CCC(=O)O)NC(=O)C(C)(C)NC(=O)[C@@H](N)Cc1ccc(O)cc1)[C@@H](C)O)[C@@H](C)O)[C@@H](C)CC)C(=O)N[C@@H](CCC(=O)O)C(=O)NCC(=O)NCC(=O)N1CCC[C@H]1C(=O)N[C@@H](CO)C(=O)N[C@@H](CO)C(=O)NCC(=O)N[C@@H](C)C(=O)N1CCC[C@H]1C(=O)N1CCC[C@H]1C(=O)N1CCC[C@H]1C(=O)N[C@@H](CO)C(N)=O` [Example 28], for which the 50% effective concentration (EC50) is > 9950 nM in test [1] (setting [5]), > 9950 nM in test [1] (setting [6]), 2.08 nM in test [2] and 2.65 nM in test [3] (setting [6]). Moreover, the Emax in test [2] (setting [7]) is 93 ± 7.02%; in test [2] (setting [8]), 95.4 ± 1.58%. For the same molecule, in test [4], the Ki was > 966 nM.
With `CC[C@H](C)[C@H](NC(=O)[C@H](CC(C)C)NC(=O)[C@](C)(Cc1ccc(O)cc1)NC(=O)[C@@H](CCC(=O)O)NC(=O)[C@@H](NC(=O)[C@H](Cc1ccccc1)NC(=O)[C@H](CCC(=O)O)NC(=O)C(C)(C)NC(=O)[C@H](CCC(N)=O)NC(=O)[C@H](C)NC(=O)[C@H](CCCCNC(=O)COCCOCCNC(=O)COCCOCCNC(=O)CC[C@H](NC(=O)CCCCCCCCCCCCC(=O)O)C(=O)O)NC(=O)[C@H](CCCN)NC(=O)[C@H](CC(=O)O)NC(=O)[C@H](CC(C)C)NC(=O)[C@](C)(CC(C)C)NC(=O)[C@@H](NC(=O)[C@H](CO)NC(=O)[C@H](Cc1ccncc1)NC(=O)[C@H](CC(=O)O)NC(=O)[C@H](CO)NC(=O)[C@@H](NC(=O)[C@](C)(Cc1ccccc1)NC(=O)[C@@H](NC(=O)CNC(=O)[C@H](CCC(=O)O)NC(=O)C(C)(C)NC(=O)[C@@H](N)Cc1ccc(O)cc1)[C@@H](C)O)[C@@H](C)O)[C@@H](C)CC)[C@@H](C)CC)C(=O)N[C@@H](CCC(=O)O)C(=O)NCC(=O)NCC(=O)N[C@@H](CCCCNC(=O)COCCOCCNC(=O)COCCOCCNC(=O)CC[C@H](NC(=O)CCCCCCCCCCCCC(=O)O)C(=O)O)C(=O)N[C@@H](CO)C(=O)N[C@@H](CO)C(=O)NCC(=O)N[C@@H](C)C(=O)N1CCC[C@H]1C(=O)N1CCC[C@H]1C(=O)N1CCC[C@H]1C(=O)N[C@@H](CO)C(N)=O` [Example 44], the EC50 in test [1] (setting [5]) was > 9950 nM; in test [1] (setting [6]), > 9950 nM; in test [2] it was 1.68 nM; in test [3] (setting [5]) it was 125 nM. The Emax in test [2] (setting [7]) was 87%; in test [2] (setting [8]), 92.2 ± 6.17%; in test [3] (HEK293, 0.1% bovine casein and 1.0% human serum albumin, 37° C., percent of maximal response to GLP-1(7-36)NH2), 94.5%; in test [3] (HEK293, percent of maximal response to GLP-1(7-36)NH2, 37° C., 0.1% bovine casein, arithmetic mean) it was 90.9 ± 10.4%. Besides, the inhibition constant Ki in test [4] was > 966 nM.
